The structures appear in SMILES notation.

Here are results for six compounds from ChEMBL document CHEMBL3797129, “Dysiherbols A-C and Dysideanone E, Cytotoxic and NF-κB Inhibitory Tetracyclic Meroterpenes from a Dysidea sp. Marine Sponge” (J Nat Prod, 2016).

Experiment [1] in a line: Inhibition of TNF alpha-induced NF-kappaB (unknown origin) activation in HEK293 cells after 6 hrs by luciferase reporter gene assay. In kind it is cell-based. The settings on record: Homo sapiens, HEK293, 6 h. (In a reporter assay the amount or activity of a reporter protein is the signal.)
Experiment [2] in a line: Cytotoxicity against human NCI-H929 cells after 48 hrs by MTS assay. In kind it is functional, cell-based. The settings on record: NCI-H929, 48 h.

For the compound `C[C@@H]1CC[C@]2(C)[C@@]3(CC[C@H](O)[C@]2(C)O)c2c(O)ccc(O)c2C[C@@]13C`, the IC50 was determined as 5.9 µM in experiment [1] and 15 µM in experiment [2].

For the compound `C[C@@H]1CC[C@]2(C)[C@@]3(CCC[C@]2(C)O)c2c(O)ccc(O)c2C[C@@]13C`, the values for the IC50 in experiment [1] and in experiment [2] were 0.49 µM and 0.58 µM, respectively.

Consider `C[C@@H]1CC[C@]2(C)[C@@]3(CCC(=O)[C@]2(C)O)c2c(O)ccc(O)c2C[C@@]13C`, for which the IC50 in experiment [1] was found to be 6.4 µM; in experiment [2], 12 µM.

With `C=C1CC[C@H]2[C@H]3[C@](C)(CC4=CC(=O)C=C[C@@]42O)[C@@H](C)CC[C@]13C`, the half-inhibitory concentration (IC50) in experiment [1] was over 10 µM; in experiment [2], 25 µM.

Consider `CC1=CCC[C@H]2[C@](C)(Cc3cc(O)ccc3O)[C@@H](C)CC[C@]12C` [AVAROL], for which the IC50 was over 10 µM in experiment [1] and 3.32 µM in experiment [2].

For `COc1ccc([C@@]23Oc4cc(OC)cc(OC)c4[C@]2(O)[C@H](O)[C@H](C(=O)N(C)C)[C@H]3c2ccccc2)cc1` [ROCAGLAMIDE], the IC50 came to 2.6 µM in experiment [1] and 3.9 µM in experiment [2].

A word on the IC50: it is the point on the concentration scale where inhibition reaches its midpoint. Read a high IC50 as weaker potency in that assay.
